Measurements reported in patent US7595300B2, “7-quinolyl ketolide antibacterial agents” (priority 2005, dated 2009).
Values after ≈ are worked out from the molar mass of the structure shown. Where two headings read alike, the source gives them in different places.

What was measured:
[1] = system: anesthetized rats; experiment: Cardiovascular safety, QT interval in anesthetized rats, i.v. bolus; type: in vivo, rat; details: anesthetized rat, incremental i.v. bolus doses 0.47 to 15 mg/kg
Procedure: (§1) Total doses of drug (0.47, 0.94, 1.88, 3.75, 7.5, and 15 mg/kg) or equivalent volumes of vehicle were administered incrementally as an i.v. bolus to groups of 6 anesthetized rats or guinea pigs at 0, 15, 30, 45, 60, and 75 minutes. Hemodynamic parameters including mean arterial pressure (MAP) and heart rate (HR), and ECG parameters (QT and PR intervals and QRS duration) were recorded. For the rat, injection of vehicle gave a 16% increase in QT interval over baseline. For the guinea pig, injection of vehicle gave a 3% increase in QT interval over baseline.

[2] = Pharmacokinetics in the mouse, plasma and lung tissue; type: in vivo; details: oral gavage 10 mg/kg; for Lung AUC / Lung Cmax: mouse lung tissue; for Plasma AUC / Plasma Cmax: mouse plasma
Procedure: The pharmacokinetics of compounds of formula (VIII) and compounds of formula (II) and (III) were measured in the mouse. Compounds were administered either intravenously (i.v.) at 1 mg/kg, or per oral gavage (p.o.) at 10 mg/kg. Plasma samples were taken and analyzed by LC/MS-MS. For lung tissue pharmacokinetics, lungs were removed and homogenized, followed by analyzis by LC/MS-MS.

[3] = system: anesthetized guinea pigs; experiment: Cardiovascular safety, QTc interval in anesthetized guinea pigs, i.v. bolus; type: in vivo, guinea pig; details: for QTc prolongation (% above vehicle): anesthetized guinea pig, incremental i.v. bolus doses 0.47 to 15 mg/kg; for effect on the QTc interval in the anesthetized guinea pig: cumulative doses up to 30 mg/kg, relative to vehicle controls
Procedure: as §1

[4] = system: M. catarrhalis; experiment: MIC, NCCLS broth microdilution, respiratory pathogens; type: cell-based; details: Moraxella catarrhalis, M. catarrhalis
Procedure: (§2) Minimum inhibitory concentrations (“MICs”) were determined by the NCCLS broth microdilution procedure for susceptibility testing for bacteria that grow aerobically (National Committee for Clinical Laboratory Standards, 1997. Methods for dilution antimicrobial susceptibility tests for bacteria that grow aerobically, 4th ed. Approved standard. NCCLS Document M7-A4. National Committee for Clinical Laboratory Standards, Villanova, Pa.). Stock solutions were prepared on the day of the test and appropriate aliquots were added to cation adjusted Mueller-Hinton broth (CAMHB, DIFCO) or Haemophilus test media. Two-fold serial dilutions were prepared and added to wells in microtiter plates. Final test concentrations ranged from 8 to 0.004 ug/ml. Broth cultures of bacteria inoculated from growth on overnight plates for all test bacteria except Streptococcus pneumoniae and Haemophilus influenzae were incubated at 35° C. and then adjusted to the Kirby Bauer standard and diluted in CAMHB to achieve a final inoculum concentration of approximately 5×10^5 CFU/ml. Inocula for S. pneumoniae and H. influenzae were prepared by directly suspending colonies from an overnight plate, adjusting the turbidity and diluting as above. S. pneumoniae media was supplemented with 3% lysed horse blood. All plates were incubated in ambient air at 35° C. for 20-24 h for S. pneumoniae and Haemophilus influenzae and 16-20 h for all other bacteria.

[5] = system: S. pyogenes; experiment: as above; type: cell-based; details: Streptococcus pyogenes; for MIC50: read-out: MIC50; for MIC90: read-out: MIC90
Procedure: as §2

[6] = system: Haemophilus influenzae; experiment: as above; type: cell-based; details: H. influenzae
Procedure: as §2

[7] = system: Streptococcus pneumoniae; experiment: as above; type: cell-based; details: S. pneumoniae; for MIC50: read-out: MIC50; for MIC90: read-out: MIC90
Procedure: as §2

[8] = system: P. granulosum; experiment: MIC, NCCLS Reference Agar Dilution Method for anaerobic bacteria; type: cell-based, Propionibacterium granulosum
Procedure: (§3) Minimum inhibitory concentrations (“MICs”) were determined by the NCCLS Reference Agar Dilution Method (M11-A5, Vol. 21, No. 2) for anaerobic bacteria. A panel of 84 antibiotic-susceptible and resistant strains of Propionibacteria from distinct geographic locations were selected. Following revival from frozen stocks, each strain was purity plated onto Wilkins Chalgren Agar, pH 7.2 (Oxoid, UK), and the appropriate antibiotic resistance/susceptibility phenotype was confirmed by antibiotic disc testing. Each strain was subjected to an agar dilution MIC assay. […] The inocula for each batch of strains were prepared from 7-day old Wilkins Chalgren Agar plate cultures by resuspension of colonies in Wilkins Chalgren Anaerobe broth, pH 7.2 (Oxoid, UK) to an optical density (OD600) of 0.2±0.02. The inoculum (1.0-2.0 μL) for each strain was applied to a Wilkins Chalgren Agar MIC plate in a grid pattern using a Multipoint Inoculator (Denley, UK). All agar plates were incubated at 37° C. for 3 days under anaerobic conditions in AnaeroPack 7 liter rectangular jars (Mitsubishi Gas Chemical Company, Inc., Japan).

[9] = system: P. acnes; experiment: as above; type: cell-based, Propionibacterium acnes
Procedure: as §3

[10] = marker RNA 2058, phenotype EryR
[11] = marker RNA 2059, phenotype EryR
[12] = marker RNA 2057, phenotype EryR

## CC1CC(N(C)C)C(O)C(O[C@@H]2[C@@H](C)C(=O)[C@@H](C)C(=O)O[C@H](CCF)[C@@]3(C)OC(=O)N[C@@H]3[C@@H](C)C(=O)[C@H](C)C[C@@]2(C)OC/C=C/c2cnc3ccccc3c2)O1 (stereo partly shown) [A]
[1]
  QT prolongation (% above vehicle): 8 % above vehicle
[2]
  Lung AUC: 2.3 ug/mL-h
  Lung Cmax: 800 ng/mL
  Plasma AUC: 0.7 ug/mL-h
  Plasma Cmax: 400 ng/mL
[3]
  QTc prolongation (% above vehicle): 10 % above vehicle
  effect on the QTc interval in the anesthetized guinea pig: pronounced, dose-dependent prolongation of the QT interval

## CC1CC(N(C)C)C(O)C(O[C@@H]2[C@@H](C)C(=O)[C@](C)(F)C(=O)O[C@H](CCF)[C@@]3(C)OC(=O)N[C@@H]3[C@@H](C)C(=O)[C@H](C)C[C@@]2(C)OC/C=C/c2cnc3ccccc3c2)O1 (stereo partly shown) [B]
[1]
  QT prolongation (% above vehicle): 10 % above vehicle
[2]
  Lung AUC: 19.0 ug/mL-h
  Lung Cmax: 3300 ng/mL
  Plasma AUC: 3.9 ug/mL-h
  Plasma Cmax: 1000 ng/mL
[3]
  QTc prolongation (% above vehicle): 3 % above vehicle
  effect on the QTc interval in the anesthetized guinea pig: smaller yet persistent increase in QTc at the highest dose

## CC1CC(N(C)C)C(O)C(O[C@@H]2[C@@H](C)C(=O)[C@@H](C)C(=O)O[C@H](CCF)[C@@]3(C)OC(=O)N[C@@H]3[C@@H](C)C(=O)[C@H](C)C[C@@]2(C)OC/C=C/c2ccc3ncccc3c2)O1 (stereo partly shown) [C]
[1]
  QT prolongation (% above vehicle): 20 % above vehicle
[3]
  QTc prolongation (% above vehicle): 12 % above vehicle
  effect on the QTc interval in the anesthetized guinea pig: pronounced, dose-dependent prolongation of the QT interval

## CC1CC(N(C)C)C(O)C(O[C@@H]2[C@@H](C)C(=O)[C@@H](C)C(=O)O[C@H](CCF)[C@@]3(C)OC(=O)N[C@@H]3[C@@H](C)C(=O)[C@H](C)C[C@@]2(C)OC/C=C/c2cnc3cccnc3c2)O1 (stereo partly shown) [D]
[1]
  QT prolongation (% above vehicle): 28 % above vehicle
[3]
  QTc prolongation (% above vehicle): 14 % above vehicle
  effect on the QTc interval in the anesthetized guinea pig: pronounced, dose-dependent prolongation of the QT interval

## CC1CC(N(C)C)C(O)C(O[C@@H]2[C@@H](C)C(=O)[C@@H](C)C(=O)O[C@H](CCF)[C@@]3(C)OC(=O)N[C@@H]3[C@@H](C)C(=O)[C@H](C)C[C@@]2(C)OC/C=C/c2ccc3nccnc3c2)O1 (stereo partly shown) [G]
[1]
  QT prolongation (% above vehicle): 12 % above vehicle
[2]
  Lung AUC: 2.2 ug/mL-h
  Lung Cmax: 450 ng/mL
  Plasma AUC: 0.54 ug/mL-h
  Plasma Cmax: 210 ng/mL
[3]
  QTc prolongation (% above vehicle): 1 % above vehicle
  effect on the QTc interval in the anesthetized guinea pig: moderate, dose-dependent increase in the QTc interval that slowly returned to baseline

## CC[C@H]1OC(=O)[C@H](C)[C@@H](O[C@H]2C[C@@](C)(OC)[C@@H](O)[C@H](C)O2)[C@H](C)[C@@H](O[C@@H]2O[C@H](C)C[C@H](N(C)C)[C@H]2O)[C@](C)(OC)C[C@@H](C)C(=O)[C@H](C)[C@@H](O)[C@]1(C)O [clarithromycin, reference compound]
[4]; read-out: MIC50
  MIC50: 0.12 µg/mL (≈ 0.16 µM)
[4]; read-out: MIC90
  MIC90: 0.12 µg/mL (≈ 0.16 µM)
[5]; genotype ermB
  MIC50: > 8 µg/mL
  MIC90: > 8 µg/mL
[5]; genotype mef
  MIC50: 8 µg/mL (≈ 10.7 µM)
  MIC90: > 8 µg/mL
[5]; genotype sensitive
  MIC50: 0.06 µg/mL (≈ 0.0802 µM)
  MIC90: 0.06 µg/mL (≈ 0.0802 µM)
[6]; resistant
  MIC50: > 8 µg/mL
  MIC90: > 8 µg/mL
[6]; sensitive
  MIC50: 8 µg/mL (≈ 10.7 µM)
  MIC90: 8 µg/mL (≈ 10.7 µM)
[7]; 20 h, genotype ermB + mef
  MIC50: > 8 µg/mL
[7]; genotype ermB + mef
  MIC90: > 8 µg/mL
[7]; genotype ermB
  MIC50: > 8 µg/mL
  MIC90: > 8 µg/mL
[7]; genotype mef
  MIC50: 4 µg/mL (≈ 5.35 µM)
  MIC90: 8 µg/mL (≈ 10.7 µM)
[7]; genotype sensitive
  MIC50: 0.06 µg/mL (≈ 0.0802 µM)
  MIC90: 0.06 µg/mL (≈ 0.0802 µM)

## CCC[C@@H]1C[C@@H](C(=O)N[C@@H]([C@H]2O[C@H](SC)[C@H](O)[C@@H](O)[C@H]2O)[C@H](C)Cl)N(C)C1 [clindamycin]
[8]; [10]
  MIC range: 512 µg/mL (≈ 1200 µM)
[8]; [11]
  MIC range: 2 to 512 µg/mL
[8]; marker ermX, phenotype EryR
  MIC range: 512 µg/mL (≈ 1200 µM)
[8]; marker none, phenotype none
  MIC range: 0.06 to 0.25 µg/mL
[9]; marker RNA 1058, phenotype TetR
  MIC range: 0.25 to 256 µg/mL
[9]; marker RNA 1058/2058, phenotype TetR, EryR
  MIC range: 256 µg/mL (≈ 602 µM)
[9]; marker RNA 1058/2059, phenotype TetR, EryR
  MIC range: 8 to 16 µg/mL
[9]; [12]
  MIC range: 1 µg/mL (≈ 2.35 µM)
[9]; [10]
  MIC range: 8 to 256 µg/mL
[9]; marker RNA 2058, phenotype EryR, TetR
  MIC range: 2 to 256 µg/mL
[9]; [11]
  MIC range: 8 to 256 µg/mL
[9]; marker RNA 2059, phenotype EryR, TetR
  MIC range: 8 to 32 µg/mL
[9]; marker ermX, phenotype EryR
  MIC range: >512 µg/mL
[9]; marker none, phenotype none
  MIC range: 0.125 to 1 µg/mL
[9]; marker unknown, phenotype ClindR
  MIC range: 4 µg/mL (≈ 9.41 µM)

## CC[C@H]1OC(=O)[C@H](C)[C@@H](O[C@H]2C[C@@](C)(OC)[C@@H](O)[C@H](C)O2)[C@H](C)[C@@H](O[C@@H]2O[C@H](C)C[C@H](N(C)C)[C@H]2O)[C@](C)(O)C[C@@H](C)C(=O)[C@H](C)[C@@H](O)[C@]1(C)O [erythromycin]
[8]; marker none, phenotype none
  MIC range: 0.06 to 8 µg/mL
[9]; [12]
  MIC range: 4 µg/mL (≈ 5.45 µM)
